Data published in patent publication US12564641B2 (EISAI R&D MANAGEMENT CO., LTD., priority 2019, dated 2026).
Where two headings read alike, the source gives them in different places.

Key:
[1] = system: OVCAR3 cells; experiment: In vitro cytotoxicity analysis (Crystal Violet), OVCAR3; assay type: cell-based; conditions: Homo sapiens
Protocol: Plates were read at 570 nm. Data was analyzed using GraphPad Prism 6.
All ADCs were purified and characterized using SEC-HPLC for aggregation analysis, HIC-HPLC for DAR analysis, and cell-based assay with A431-A3 (MSLN^hi), A431 (MSLN^lo), and OVCAR3 (MSLN^hi) cell lines.

[2] = system: human mesothelioma HAY xenograft
Protocol: Female CD-1 IGS mice (Charles River, 7-9 weeks old) were used for the maximum tolerated dose (MTD) study, female NOD.CB17-SCID mice (Jackson Laboratory) were used for the NCI-H2110 and HAY xenograft studies, and female NCr nude mice (Taconic, 5 weeks old) were used for the NCI-N87 xenograft studies. Upon arrival, animals were acclimated for 5-7 days prior to inoculation.
Cryopreserved NCI-H2110, NCI-N87, or HAY cells from frozen stocks were cultured in medium containing necessary supplements.
Mice were injected subcutaneously with 100 μL/mouse of cell mixture and monitored for body weight and tumor growth.
Mice were randomized to five mice per group once tumor implants reached an average volume of 100 mm^3. Treatment was given intravenously at a volume of 200 μL. Terminal body weight was measured and recorded at the end of each study.
Comparison of tumor growth within each experimental group was also performed using the same statistical analysis.

[3] = system: human NSCLC PDX LC-F-25; experiment: Human NSCLC PDX model LC-F-25; assay type: in vivo, mouse
Protocol: Statistical analysis: Statistical analysis was performed for each measurement by a Mann-Whitney non-parametric comparison test. Each treated group was compared with the control group.

[4] = system: human NSCLC PDX LXFA-737
Protocol: Animals: Female NMRI nu/nu mice (Crl:NMRI-Foxn1nu), 4 to 6 weeks of age.
Experimental procedure: Animals were monitored until the tumor implants reached the study volume criteria of 50-250 mm^3 (e.g., 80-200 mm^3) in a sufficient number of animals. […] The day of randomization was designated as day 0.
Tumors were measured and mice were weighed twice a week during the experimental period. The first day of dosing was day 1, one day after randomization (day 0).
Statistical analysis: Inhibition of Tumor Growth, Test/Control Value in % (Min. T/C): The test versus control value (T/C in %) was calculated from the ratio of the median residual tumor volume (RTV) values of test versus control groups on day X multiplied by 100. Tumor volume doubling and quadrupling time (Td, Tq) for test and control groups was defined as the time interval (in days) required for a group to reach a median RTV of 200% or 400%.

[5] = system: human mesothelioma PDX Meso7212; experiment: Human mesothelioma PDX model Meso7212 (Example 3)
Protocol: NMRI nu/nu female mice (Janvier Labs, 5-6 weeks) were acclimated for at least 4 days upon arrival prior to inoculation. Animals was housed 3-5 mice per ventilated cage with sterilized food pellets and water bottle available ad lib. Animals were ear marked and weighed prior to study initiation.
Donor tumor tissue was cut into 2×2 mm fragments and placed in a sterile Petri dish covered with 0.9% saline. In parallel, the receptor animals were subcutaneously treated with the analgesic Metacam® (2 mg/kg) and then anaesthetized by a single intravenous injection (0.15 mL/mouse) with Etomidat-Lipuro® (12 mg/kg). A superficial vertical incision in the skin of 5-8 mm on the left flank was performed. The tip of a surgical scissor was inserted into the incision, directly over the flank, and was used to form a pocket in the subcutaneous space. One tumor fragment per mouse was implanted into the pocket using surgical tweezers. The incision was closed with a metal clip and the animals were placed back into a clean cage.
During tumor propagation, tumor diameters were measured using a digital caliper (Mitutoyo). Animals were randomly assigned into experimental groups according to their tumor volume (inclusion criteria for tumor volume, 0.1-0.3 cm^3). Tumor volumes and body weights were recorded twice weekly.
The administration volume was 10 mL/kg for intravenous injections throughout all experimental groups.
Descriptive statistics were performed on the data for tumor volume and body weight. Tumor volumes of animals from each treatment group were compared with the control group by using a repeated-measures two-way ANOVA, followed by a Bonferroni post-test. Additionally, the comparison of tumor growth of animals within each group was also performed with the same statistical analysis.

[6] = eribulin single dose of 0.1 mg/kg i.v.
[7] = eribulin single dose of 3.2 mg/kg i.v.

C=C1C[C@@H]2CC[C@@]34C[C@H]5O[C@H]6[C@@H](O3)[C@H]3O[C@H](CC[C@@H]3O[C@H]6[C@H]5O4)CC(=O)C[C@@H]3[C@@H](OC)[C@@H](C[C@H](O)CN)O[C@H]3C[C@H]3O[C@@H](CC[C@@H]1O2)C[C@@H](C)C3=C [Eribulin, eribulin, reference compound]
EC50 ([1]; OVCAR-3, read-out: Cell based Cytotoxicity assay, EC50 (nM) OVCAR3-6 hr, treated with ADC for 6 hours then washed off): 2.81 nM
EC50 ([1]; OVCAR-3, read-out: Cell based Cytotoxicity assay, EC50 (nM) OVCAR3-72 hr, treated for 72 hours): 0.25 nM
anti-tumor effect ([2]; eribulin alone 0.1 mg/kg (equivalent molar amount as in MORAb-109)): limited anti-tumor effects
anti-tumor effect ([2]; eribulin alone at the MTD (3.2 mg/kg)): limited anti-tumor effects
tolerability [3, 6]: well tolerated
tumor growth inhibition [3, 6]: did not induce statistically significant tumor growth inhibition
tolerability / bodyweight ([3]; eribulin single dose of 3.2 mg/kg (mouse MTD) i.v., from 3 to 10 days after administration): slight and transient bodyweight loss
partial tumor regressions [3, 7]: 6 out of 8
tumor growth inhibition [3, 7]: statistically significant tumor growth inhibition
minimum T/C ([4]; eribulin single dose of 0.2 mg/kg, on day 44): 51.1%
Tq (tumor volume quadrupling time) [4, 7]: 80.1%
minimum T/C ([4]; eribulin single dose of 3.2 mg/kg i.v., on day 27): 4.2%
tolerability / bodyweight ([4]; mouse, in vivo, iv, 3.2 mg/kg): slight and transient bodyweight loss
anti-tumor effect ([5]; Meso7212 (MV15369), eribulin alone 0.2 mg/kg (equivalent molar amount)): limited anti-tumor effects
body weight change ([5]; Meso7212 (MV16071), eribulin 0.3 mg/kg): No body weight loss
anti-tumor effect ([5]; Meso7212 (MV16071), eribulin alone 0.3 mg/kg (equivalent molar amount)): limited or no anti-tumor effects
